Measurements from US6841567B1, “Cyclic substituted fused pyrrolocarbazoles and isoindolones” (Cephalon, Inc., priority 1999, dated 2005).

Tests used:
[1] = biological target: T1, baculovirus-expressed human trkA cytoplasmic domain (Homo sapiens, UniProt P04629); test: Inhibition of trkA tyrosine kinase activity (ELISA-based assay); assay type: biochemical; conditions: for IC50: 40 μM ATP; for trkA kinase activity % Inh. @ 300 nM (values in parentheses): 300 nM compound
T1 construct: baculovirus-expressed human trkA cytoplasmic domain; made in house; host or cells: baculovirus expression system
Description: Selected cyclic substituted fused pyrrolocarbazole and isoindolone compounds were tested for their ability to inhibit the kinase activity of baculovirus-expressed human trkA cytoplasmic domain using an ELISA-based assay as previously described (Angeles et al., Anal. Biochem. 236: 49-55, 1996). Briefly, the 96-well microtiter plate was coated with substrate solution (recombinant human phospholipase C-γ1/glutathione S-transferase fusion protein (Rotin et al., EMBO J., 11: 559-567, 1992). Inhibition studies were performed in 100 μl assay mixtures containing 50 mM Hepes, pH 7.4, 40 μM ATP, 10 mM MnCl2, 0.1% BSA, 2% DMSO, and various concentrations of inhibitor. The reaction was initiated by addition of trkA kinase and allowed to proceed for 15 minutes at 37° C. An antibody to phosphotyrosine (UBI) was then added, followed by a secondary enzyme-conjugated antibody, alkaline phosphatase-labelled goat antII-mouse IgG (Bio-Rad). The activity of the bound enzyme was measured via an amplified detection system (Gibco-BRL). Inhibition data were analyzed using the sigimoidal dose-response (variable slope) equation in GraphPad Prism.

[2] = biological target: T2, VEGF receptor (human flk-1, KDR, VEGFR2) kinase domain (Homo sapiens, UniProt P35968); test: Inhibition of vascular endothelial growth factor receptor kinase activity (ELISA); assay type: biochemical; conditions: for inhibition at 0.3 µM: read-out: VEGF receptor kinase activity % Inh. @ 300 nM (values in parentheses); for IC50: 40 μM ATP
T2 construct: VEGF receptor (human flk-1, KDR, VEGFR2) kinase domain; made in house; host or cells: baculovirus expression system
Description: Cyclic substituted fused pyrrolocarbazole and isoindolone compounds were examined for their inhibitory effects on the kinase activity of baculovirus-expressed VEGF receptor (human flk-1, KDR, VEGFR2) kinase domain using the procedure described for the trkA kinase ELISA assay described above. The kinase reaction mixture, consisting of 50 mM Hepes, pH 7.4, 40 μM ATP, 10 mM MnCl2, 0.1% BSA, 2% DMSO, and various concentrations of inhibitor, was transferred to PLC-γ/GST-coated plates. VEGFR kinase was added and the reaction was allowed to proceed for 15 min. at 37 C. Detection of phosphorylated product was accomplished by addition of antII-phosphotyrosine antibody (UBI). A secondary enzymeconjugated antibody was delivered to capture the antibody-phosphorylated PLC-γ/GST complex. The activity of the bound enzyme was measured via an amplified detection system (Gibco-BRL). Inhibition data were analyzed using the sigmoidal dose-response (variable slope) equation in GraphPad Prism.

[3] = biological target: T3, PDGFβ receptor kinase domain (recombinant human PDGFRβ) (Homo sapiens, UniProt P09619); test: Inhibition of platelet derived growth factor receptor kinase activity (ELISA); assay type: biochemical; conditions: for inhibition at 0.3 µM: read-out: PDGFRβ % inh @ 300 nM (values in parentheses)
T3 construct: kinase activity of baculovirus-expressed PDGFβ receptor kinase domain; made in house; host or cells: baculovirus expression system
Description: Cyclic substituted fused pyrrolocarbazole and isoindolone compounds were examined for their inhibitory effects on the kinase activity of baculovirus-expressed PDGFβ receptor kinase domain using the trkA kinase ELISA described above. Assays were performed in substrate (PLC-γ/GST)-coated 96-well microtiter plates. Each 100-μl reaction mixture contained 50 mM HEPES, pH 7.4, 20 μM ATP, 10 mM MnCl2, 0.1% BSA, 2% DMSO, and various concentrations of inhibitor. The reaction was initiated by addition of prephosphorylated recombinant human enzyme (10 ng/ml PDGFRβ) and allowed to proceed for 15 minutes at 37° C. The prephosphorylated enzyme was prepared prior to use by incubation of the kinase in buffer containing 20 μM ATP and 10 mM MnCl2 for 1 hour at 4° C. Detection of phosphorylated product was done by adding horseradish peroxidase (HRP)-conjugated antII-phosphotyrosine antibody (UBI). The HRP substrate solution containing 3,3′-5,5′-tetramethylbenzidine and hydrogen peroxide was later added and the plates were incubated for 10 minutes at room temperature. The reaction was quenched with acid and the resulting absorbance was read at 450 nm using a Microplate Bio-kinetics Reader (Bio-Tek Instrument EL 312e). Inhibition data were analyzed using the sigmoidal dose-response (variable slope) equation in GraphPad Prism.

[4] = system: protein kinase C (UBI; mixed isozymes of a, b, g); test: Inhibition of protein kinase C activity (Millipore Multiscreen TCA in-plate assay); assay type: biochemical
Description: Protein kinase C activity was assessed using the Millipore Multiscreen TCA “in-plate” assay as described in Pitt, A. M. and Lee, C. (J. Biomol. Screening, 1: 47-51, 1996). Assays were performed in 96-well Multiscreen-DP plates (Millipore). Each […] assay mixture contained 20 mM Hepes, pH 7.4, 10 mM MgCl2, 2.5 mM EGTA, 2.5 mM CaCl2, […] phosphatidyl serine, […] diolein, […] histone H-1 (Fluka), […] [γ-^32P]ATP, 1.5 ng protein kinase C (UBI; mixed isozymes of a, b, g), 0.1% BSA, 2% DMSO, and test cyclic substituted fused pyrrolocarbazole compound. The reaction was allowed to proceed for 10 min at 37° C., then quenched by adding ice cold 50% trichloroacetic acid. The plates were allowed to equilibrate for 30 min at 4° C., then washed with ice cold 25% TCA. Scintillation cocktail was added to the plates, and the radioactivity was determined using Wallac MicroBeta 1450 PLUS scintillation counter. The IC50 values were calculated by fitting the data to the sigmoidal dose-response (variable slope) equation in GraphPad Prism.

[5] = system: ChAT activity in dissociated rat embryonic spinal cord culture; test: Enhancement of spinal cord ChAT activity; assay type: cell-based
Source text: As discussed above, CHAT is a specific biochemical marker for functional cholinergic neurons. Cholinergic neurons represent a major cholinergic input into the hippocampal formation, olfactory nucleus, interpeduncular nucleus, cortex, amygdala, and parts of the thalamus. In the spinal cord, the motor neurons are cholinergic neurons which contain CHAT (Phelps et al., J. Comp. Neurol. 273:459-472 (1988)). ChAT activity has been used to study the effects of neurotrophins (e.g., NGF or NT-3) on the survival and/or function of cholinergic neurons. The ChAT assay also serves as an indication of the regulation of ChAT levels within cholinergic neurons.
For example, in these assays, a compound was directly added to a dissociated spinal cord culture. Compounds which increased ChAT activity at least 120% of the control activity were considered active.
Methods: Fetal rat spinal cord cells were dissociated, and experiments were performed as described (Smith et al., J. Cell Biology 101:1608-1621 (1985); Glicksman et al., J. Neurochem. 61:210-221 (1993)). […] ChAT activity was measured after 2 days in vitro using a modification of the Fonnum procedure (Fonnum, J. Neurochem. 24:407-409 (1975)) according to McManaman et al. and Glicksman et al. (McManamnan et al., Developmental Biology 125:311-320 (1988); Glicksman et al., J. Neurochem., supra).

[6] = biological target: T4, trkA (NIH3T3 cells transfected with trkA) (Homo sapiens, UniProt P04629); test: Inhibition of NGF-stimulated trk phosphorylation in a whole cell preparation; assay type: cell-based; conditions: NGF 10 ng/ml; for Cell Score @ 100 nM (percent decrease in trk protein band): 100 nM compound; for Cell Score @ 1 uM (percent decrease in trk protein band): 1 uM compound
T4 construct: expressed in transfected cells; host or cells: NIH3T3
Description: NIH3T3 cells transfected with trkA were grown in 100 mm dishes. Subconfluent cells were serum-starved by replacing media with serum-free 0.05% BSA-DMEM containing compound (100 nM and 1 μM) or DMSO (added to controls) for one hour at 37° C. NGF (Harlan/Bioproducts for Science) was then added to the cells at a concentration of 10 ng/ml for 5 minutes. Cells were lysed in buffer containing detergent and protease inhibitors. Clarified cell lysates were normalized to protein using BCA method and immunoprecipitated with antII-trk antibody. Polyclonal antII-trk antibody was prepared against a peptide corresponding to the 14 amino acids at the carboxy terminus of trk (Martin-Zanca et al., Mol. Cell. Biol. 9: 24-33, 1989). The immune complexes were collected on Protein A Sepharose beads (Sigma Chem. Co., St. Lois, Mo.), separated by SDS polyacrylamide gel electrophoresis (SDS-PAGE), and transferred to a polyvinylidene difluoride (PVDF) membrane. The membrane was immunoblotted with antII-phosphotyrosine antibody (UBI), followed by incubation with horseradish peroxidase coupled goat antII-mouse IgG (Bio-Rad Laboratories, Hercules, Calif.). Phosphorylated proteins were visualized using ECL (Arnersham Life Science, Inc., Arlington Heights, Ill.). The area of the trk protein band was measured and compared to NGF-stimulated control. The inhibition scoring system used, based on percent decrease in trk protein band, was as follows: 0=no decrease; 1=1-25%; 2=26-49%; 3=50-75%; 4=76-100%.

T3 sequence (P09619 600-962 limits assumed): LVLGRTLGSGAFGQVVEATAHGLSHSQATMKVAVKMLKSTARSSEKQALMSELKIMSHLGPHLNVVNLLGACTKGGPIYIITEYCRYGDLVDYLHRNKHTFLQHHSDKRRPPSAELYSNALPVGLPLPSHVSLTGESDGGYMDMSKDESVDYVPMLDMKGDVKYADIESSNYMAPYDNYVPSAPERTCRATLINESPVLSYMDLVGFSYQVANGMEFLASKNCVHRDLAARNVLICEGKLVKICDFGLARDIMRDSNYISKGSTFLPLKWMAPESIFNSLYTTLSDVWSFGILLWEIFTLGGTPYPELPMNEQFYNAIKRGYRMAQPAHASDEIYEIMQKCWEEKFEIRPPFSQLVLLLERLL
T4 sequence (P04629 33-796, species assumed): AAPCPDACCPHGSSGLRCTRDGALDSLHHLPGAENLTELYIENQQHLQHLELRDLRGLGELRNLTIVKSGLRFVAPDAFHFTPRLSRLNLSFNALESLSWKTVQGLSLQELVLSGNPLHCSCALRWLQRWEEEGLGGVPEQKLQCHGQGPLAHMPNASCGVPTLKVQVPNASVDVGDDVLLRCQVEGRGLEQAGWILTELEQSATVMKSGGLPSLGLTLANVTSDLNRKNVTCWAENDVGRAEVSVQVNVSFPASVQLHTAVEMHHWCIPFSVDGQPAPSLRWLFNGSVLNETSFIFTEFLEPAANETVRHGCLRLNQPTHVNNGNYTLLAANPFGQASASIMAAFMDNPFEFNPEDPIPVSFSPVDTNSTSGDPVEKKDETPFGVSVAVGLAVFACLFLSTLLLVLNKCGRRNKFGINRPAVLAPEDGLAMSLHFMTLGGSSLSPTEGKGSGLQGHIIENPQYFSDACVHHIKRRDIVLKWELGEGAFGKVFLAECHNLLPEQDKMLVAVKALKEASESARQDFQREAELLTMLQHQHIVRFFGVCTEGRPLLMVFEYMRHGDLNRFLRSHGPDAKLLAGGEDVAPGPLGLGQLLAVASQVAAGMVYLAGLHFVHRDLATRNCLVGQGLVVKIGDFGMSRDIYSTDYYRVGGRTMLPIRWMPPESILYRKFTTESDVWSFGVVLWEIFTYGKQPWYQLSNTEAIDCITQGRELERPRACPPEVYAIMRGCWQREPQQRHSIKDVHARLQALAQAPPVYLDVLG
T1 sequence (P04629 440-796 limits assumed): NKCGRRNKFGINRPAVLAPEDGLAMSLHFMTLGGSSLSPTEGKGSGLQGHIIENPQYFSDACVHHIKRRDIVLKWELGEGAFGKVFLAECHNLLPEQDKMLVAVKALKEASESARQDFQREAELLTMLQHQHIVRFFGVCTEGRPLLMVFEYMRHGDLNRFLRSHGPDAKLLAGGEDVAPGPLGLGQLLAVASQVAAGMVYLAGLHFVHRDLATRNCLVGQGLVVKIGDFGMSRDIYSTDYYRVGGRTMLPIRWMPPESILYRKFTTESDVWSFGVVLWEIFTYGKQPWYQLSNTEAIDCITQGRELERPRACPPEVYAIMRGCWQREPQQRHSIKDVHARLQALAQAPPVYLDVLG
T2 sequence (P35968 834-1162 limits assumed): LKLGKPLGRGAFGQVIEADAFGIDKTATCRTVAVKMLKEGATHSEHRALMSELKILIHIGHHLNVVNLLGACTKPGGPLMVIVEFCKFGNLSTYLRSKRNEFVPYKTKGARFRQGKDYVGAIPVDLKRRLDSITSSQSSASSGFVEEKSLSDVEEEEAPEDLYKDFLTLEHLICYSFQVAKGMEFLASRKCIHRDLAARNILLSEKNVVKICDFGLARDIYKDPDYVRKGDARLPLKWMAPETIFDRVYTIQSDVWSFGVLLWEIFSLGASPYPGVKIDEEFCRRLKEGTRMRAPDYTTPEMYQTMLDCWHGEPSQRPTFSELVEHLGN

Row | SMILES | IC50 [1] | inhibition at 0.3 µM ([2]; 300 nM compound) | inhibition at 0.3 µM ([3]; 300 nM compound) | Cell Score @ 100 nM (percent decrease in trk protein band) [6] | Cell Score @ 1 uM (percent decrease in trk protein band) [6] | IC50 [2] | IC50 [4] | further results
1 | O=C1NCc2c1c1c(c3c2c2ccccc2n3CC2CC2)C(CC2CC2)c2ccccc2-1 (centres unmarked) [II-65] | 320 nM | 26% | 5% | – | – | – | – | Protein kinase C activity, values in parentheses ([4]; concentration not given): (20)
2 | CC(C)(C)C(=O)OCC1(C2c3ccccc3-c3c4c(c5c([nH]c6ccccc65)c32)CNC4=O)CCCO1 (mixture of isomers) [II-20] | – | – | – | – | – | – | – | trkA kinase activity % Inh. @ 300 nM (values in parentheses) [1]: (39) %; Spinal Cord ChAT (% control) Activity at 30 nM ([5]; 30 nM compound): 132 % control; Spinal Cord ChAT (% control) Maximal Activity ([5]; @ 500 nM): 191 @ 500 nM % control
3 | COC(=O)[C@H]1CSC(CCn2c3ccccc3c3c4c(c5c(c32)Cc2ccccc2-5)C(=O)NC4)N1 (some centres unmarked) [II-67] | 555 nM | 65% | 23% | – | – | – | – | –
4 | O=C1NCc2c1c1c(c3[nH]c4ccccc4c23)C(C2(CO)CCCO2)c2ccccc2-1 (single isomer, unassigned) [II-36] | 20 nM | – | – | 1 (1=1-25%) | 4 (4=76-100%) | 846 nM | > 10000 nM | –
5 | COCCOC(=O)c1ccc2[nH]c3c4c(c5c(c3c2c1)CNC5=O)-c1ccccc1C4C1CCC(OCCOC)O1 (centres unmarked) [II-52] | 27 nM | – | 45% | 2 (2=26-49%) | 3 (3=50-75%) | – | – | –
6 | O=C1NCc2c1c1c(c3[nH]c4ccccc4c23)C(C2CCC(O)O2)c2ccccc2-1 (racemic) [II-23] | 19 nM | – | – | 2 (2=26-49%) | 4 (4=76-100%) | 79 nM | 644 nM | IC50 ([3]; 20 μM ATP): 648 nM
7 | O=C1NCc2c1c1c(c3[nH]c4ccccc4c23)C(C2(O)CCCC2CN2CCOCC2)c2ccccc2-1 (mixture of isomers) [II-17] | – | – | – | – | – | – | – | trkA kinase activity % Inh. @ 300 nM (values in parentheses) [1]: (33) %; VEGF receptor kinase activity % Inh. @ 300 nM (values in parentheses) ([2]; 300 nM compound): (33) %; PDGFRβ % inh @ 300 nM (values in parentheses) ([3]; 300 nM compound): (47) %

Further compounds by falling IC50 [1], results first:

Row | IC50 [1] | inhibition at 0.3 µM ([2]; 300 nM compound) | inhibition at 0.3 µM ([3]; 300 nM compound) | Cell Score @ 100 nM (percent decrease in trk protein band) [6] | Cell Score @ 1 uM (percent decrease in trk protein band) [6] | IC50 [2] | IC50 [4] | SMILES | further results
8 | 405 nM | – | – | 2 (2=26-49%) | 2 (2=26-49%) | 5100 nM | > 10000 nM | O=C1NCc2c1c1c(c3[nH]c4ccccc4c23)C(C2CCC(O)O2)c2ccccc2-1 (single isomer, unassigned) [II-38] | –
9 | 399 nM | 20% | 29% | – | – | – | – | CC1C=CC(C(O)C2c3ccccc3-c3c4c(c5c([nH]c6ccccc65)c32)CNC4=O)n2c(=O)n(-c3ccccc3)c(=O)n21 (centres unmarked) [II-64] | –
10 | 245 nM | 31% | 0% | – | – | – | – | CCNC(=O)OCC1(C2c3ccccc3-c3c4c(c5c6ccccc6n(C(=O)NCC)c5c32)CNC4=O)CCCO1 (centres unmarked) [II-68] | –
11 | 24 nM | 49% | 18% | – | – | – | – | CCNC(=O)n1c2ccccc2c2c3c(c4c(c21)C(C1(CO)CCCO1)c1ccccc1-4)C(=O)NC3 (centres unmarked) [II-69] | –
12 | 8 nM | – | – | 4 (4=76-100%) | 4 (4=76-100%) | 209 nM | 2200 nM | COc1ccc2c(c1)C(C1(CO)CCCO1)c1c-2c2c(c3c1[nH]c1ccccc13)CNC2=O (centres unmarked) [II-53] | –
